Values quoted from earlier work, collected in US20240265995A1, “System of Predicting Sensitivity of Klebsiella against Cefoxitin and Method” (priority 2023, published 2024).

Tested on: carbapenem resistant Klebsiella pneumoniae
Details: carbapenem resistant Klebsiella pneumoniae isolated from 2014 to 2017 (252/403)

C[C@@H](O)[C@H]1C(=O)N2C(C(=O)O)=C(S[C@@H]3CN[C@H](C(=O)N(C)C)C3)[C@H](C)[C@H]12 [meropenem]
resistance rate against meropenem: 62.5%
